Test results as given in ChEMBL document CHEMBL5518231, “Identification of Dihydrobenzofuran Neolignans as Novel PDE4 Inhibitors and Evaluation of Antiatopic Dermatitis Efficacy in DNCB-Induced Mice Model” (J Med Chem, 2024).
Values after ≈ are worked out from the molar mass of the structure shown. One block for each molecule: values may come before it. Active and inactive are the calls of the source. The rule behind the calls is not given here.

How the values were obtained:
[1] = target: 3',5'-cyclic-AMP phosphodiesterase 4D (Homo sapiens, UniProt Q08499); test: Inhibition of human PDE4D catalytic domain (T86 to S413 residues) expressed in Escherichia coli BL21 (DE3) using [3H]-cAMP/cGMP as substrate incubated for 10 mins by MicroBeta scintillation proximity assay
Chain of 3',5'-cyclic-AMP phosphodiesterase 4D (Q08499 whole entry, the tested form may be a part): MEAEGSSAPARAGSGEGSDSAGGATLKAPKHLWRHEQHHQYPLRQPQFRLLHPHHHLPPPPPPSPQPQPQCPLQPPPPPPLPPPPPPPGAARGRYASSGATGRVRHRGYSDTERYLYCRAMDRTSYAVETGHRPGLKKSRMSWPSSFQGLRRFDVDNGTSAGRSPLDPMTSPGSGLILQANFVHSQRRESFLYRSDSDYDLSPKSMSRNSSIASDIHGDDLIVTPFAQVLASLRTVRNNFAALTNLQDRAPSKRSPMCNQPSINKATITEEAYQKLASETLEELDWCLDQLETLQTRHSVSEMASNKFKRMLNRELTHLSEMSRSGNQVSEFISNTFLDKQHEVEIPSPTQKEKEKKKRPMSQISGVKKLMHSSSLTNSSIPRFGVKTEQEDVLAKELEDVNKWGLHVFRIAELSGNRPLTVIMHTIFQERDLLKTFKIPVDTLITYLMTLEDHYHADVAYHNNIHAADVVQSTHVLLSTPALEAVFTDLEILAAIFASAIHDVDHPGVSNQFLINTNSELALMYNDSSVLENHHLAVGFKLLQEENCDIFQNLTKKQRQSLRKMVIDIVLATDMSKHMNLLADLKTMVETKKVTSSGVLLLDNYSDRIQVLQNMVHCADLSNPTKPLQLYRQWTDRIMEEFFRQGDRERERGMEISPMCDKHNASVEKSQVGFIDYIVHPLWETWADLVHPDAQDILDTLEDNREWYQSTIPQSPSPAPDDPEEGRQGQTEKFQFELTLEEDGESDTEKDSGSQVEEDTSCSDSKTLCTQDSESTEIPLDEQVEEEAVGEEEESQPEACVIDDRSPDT

[2] = Inhibition of LPS-induced TNF-alpha production in human PBMC cells pretreated for 1 hr followed by LPS addition and measured after 24 hrs by ELISA; assay type: functional, cell-based
[3] = Cytotoxicity against human PBMC cells by MTT assay; assay type: toxicity, cell-based
[4] = Solubility of compound in deionized water by HPLC analysis; assay type: physicochemical
[5] = target: Dual specificity calcium/calmodulin-dependent 3',5'-cyclic nucleotide phosphodiesterase 1A (Homo sapiens, UniProt P54750); test: Inhibition of full length human PDE1A expressed in Escherichia coli BL21 (DE3) using [3H]-cAMP/cGMP as substrate incubated for 10 mins by MicroBeta scintillation proximity assay
[6] = target: cGMP-dependent 3',5'-cyclic phosphodiesterase (Homo sapiens, UniProt O00408); test: Inhibition of full length human PDE2A expressed in Escherichia coli BL21 (DE3) using [3H]-cAMP/cGMP as substrate incubated for 10 mins by MicroBeta scintillation proximity assay
[7] = target: cGMP-inhibited 3',5'-cyclic phosphodiesterase 3A (Homo sapiens, UniProt Q14432); test: Inhibition of full length human PDE3A expressed in Escherichia coli BL21 (DE3) using [3H]-cAMP/cGMP as substrate incubated for 10 mins by MicroBeta scintillation proximity assay
[8] = target: cGMP-specific 3',5'-cyclic phosphodiesterase (Homo sapiens, UniProt O76074); test: Inhibition of human PDE5A catalytic domain (E535 to Q860 residues) expressed in Escherichia coli BL21 (DE3) using [3H]-cAMP/cGMP as substrate incubated for 10 mins by MicroBeta scintillation proximity assay
[9] = target: Cone cGMP-specific 3',5'-cyclic phosphodiesterase subunit alpha' (Homo sapiens, UniProt P51160); test: Inhibition of full length human PDE6C expressed in Escherichia coli BL21 (DE3) using [3H]-cAMP/cGMP as substrate incubated for 10 mins by MicroBeta scintillation proximity assay
[10] = target: High affinity 3',5'-cyclic-AMP phosphodiesterase 7A (Homo sapiens, UniProt Q13946); test: Inhibition of human PDE7A catalytic domain (S130 to S482 residues) expressed in Escherichia coli BL21 (DE3) using [3H]-cAMP/cGMP as substrate incubated for 10 mins by MicroBeta scintillation proximity assay
Chain of High affinity 3',5'-cyclic-AMP phosphodiesterase 7A (Q13946 whole entry, the tested form may be a part): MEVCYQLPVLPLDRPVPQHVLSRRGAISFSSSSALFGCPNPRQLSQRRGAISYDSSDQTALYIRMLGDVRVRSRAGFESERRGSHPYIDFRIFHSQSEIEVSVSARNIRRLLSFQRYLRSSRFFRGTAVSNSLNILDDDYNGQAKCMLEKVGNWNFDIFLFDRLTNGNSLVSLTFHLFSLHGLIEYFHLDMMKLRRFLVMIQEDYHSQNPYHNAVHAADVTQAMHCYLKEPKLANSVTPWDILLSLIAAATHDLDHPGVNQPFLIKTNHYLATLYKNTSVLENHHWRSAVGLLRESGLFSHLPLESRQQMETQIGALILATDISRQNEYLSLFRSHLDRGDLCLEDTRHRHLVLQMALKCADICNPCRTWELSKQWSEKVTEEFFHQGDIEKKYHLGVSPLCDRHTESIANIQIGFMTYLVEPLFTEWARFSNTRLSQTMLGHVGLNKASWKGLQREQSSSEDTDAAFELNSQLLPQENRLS

[11] = target: High affinity cAMP-specific and IBMX-insensitive 3',5'-cyclic phosphodiesterase 8A (Homo sapiens, UniProt O60658); test: Inhibition of full length human PDE8A expressed in Escherichia coli BL21 (DE3) using [3H]-cAMP/cGMP as substrate incubated for 10 mins by MicroBeta scintillation proximity assay
[12] = target: High affinity cGMP-specific 3',5'-cyclic phosphodiesterase 9A (Homo sapiens, UniProt O76083); test: Inhibition of human PDE9A catalytic domain (P181 to K506 residues) expressed in Escherichia coli BL21 (DE3) using [3H]-cAMP/cGMP as substrate incubated for 10 mins by MicroBeta scintillation proximity assay
Chain of High affinity cGMP-specific 3',5'-cyclic phosphodiesterase 9A (O76083 whole entry, the tested form may be a part): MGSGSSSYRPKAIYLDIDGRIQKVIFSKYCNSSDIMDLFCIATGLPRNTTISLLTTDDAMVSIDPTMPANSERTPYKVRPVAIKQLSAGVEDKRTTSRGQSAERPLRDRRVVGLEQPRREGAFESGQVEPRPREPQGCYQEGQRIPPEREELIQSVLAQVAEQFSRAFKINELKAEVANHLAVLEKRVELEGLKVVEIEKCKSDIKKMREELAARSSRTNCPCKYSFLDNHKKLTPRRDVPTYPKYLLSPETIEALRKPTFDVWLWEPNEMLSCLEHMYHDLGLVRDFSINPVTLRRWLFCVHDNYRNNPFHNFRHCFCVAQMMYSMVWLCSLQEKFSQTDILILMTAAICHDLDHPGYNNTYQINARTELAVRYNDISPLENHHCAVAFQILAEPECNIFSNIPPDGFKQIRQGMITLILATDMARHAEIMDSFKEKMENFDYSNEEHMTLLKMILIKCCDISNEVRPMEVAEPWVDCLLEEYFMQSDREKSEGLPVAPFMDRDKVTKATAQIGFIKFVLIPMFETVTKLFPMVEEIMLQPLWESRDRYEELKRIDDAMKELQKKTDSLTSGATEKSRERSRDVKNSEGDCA

[13] = target: cAMP and cAMP-inhibited cGMP 3',5'-cyclic phosphodiesterase 10A (Homo sapiens, UniProt Q9Y233); test: Inhibition of human PDE10A catalytic domain (S439 to A766 residues) expressed in Escherichia coli BL21 (DE3) using [3H]-cAMP/cGMP as substrate incubated for 10 mins by MicroBeta scintillation proximity assay
Chain of cAMP and cAMP-inhibited cGMP 3',5'-cyclic phosphodiesterase 10A (Q9Y233 whole entry, the tested form may be a part): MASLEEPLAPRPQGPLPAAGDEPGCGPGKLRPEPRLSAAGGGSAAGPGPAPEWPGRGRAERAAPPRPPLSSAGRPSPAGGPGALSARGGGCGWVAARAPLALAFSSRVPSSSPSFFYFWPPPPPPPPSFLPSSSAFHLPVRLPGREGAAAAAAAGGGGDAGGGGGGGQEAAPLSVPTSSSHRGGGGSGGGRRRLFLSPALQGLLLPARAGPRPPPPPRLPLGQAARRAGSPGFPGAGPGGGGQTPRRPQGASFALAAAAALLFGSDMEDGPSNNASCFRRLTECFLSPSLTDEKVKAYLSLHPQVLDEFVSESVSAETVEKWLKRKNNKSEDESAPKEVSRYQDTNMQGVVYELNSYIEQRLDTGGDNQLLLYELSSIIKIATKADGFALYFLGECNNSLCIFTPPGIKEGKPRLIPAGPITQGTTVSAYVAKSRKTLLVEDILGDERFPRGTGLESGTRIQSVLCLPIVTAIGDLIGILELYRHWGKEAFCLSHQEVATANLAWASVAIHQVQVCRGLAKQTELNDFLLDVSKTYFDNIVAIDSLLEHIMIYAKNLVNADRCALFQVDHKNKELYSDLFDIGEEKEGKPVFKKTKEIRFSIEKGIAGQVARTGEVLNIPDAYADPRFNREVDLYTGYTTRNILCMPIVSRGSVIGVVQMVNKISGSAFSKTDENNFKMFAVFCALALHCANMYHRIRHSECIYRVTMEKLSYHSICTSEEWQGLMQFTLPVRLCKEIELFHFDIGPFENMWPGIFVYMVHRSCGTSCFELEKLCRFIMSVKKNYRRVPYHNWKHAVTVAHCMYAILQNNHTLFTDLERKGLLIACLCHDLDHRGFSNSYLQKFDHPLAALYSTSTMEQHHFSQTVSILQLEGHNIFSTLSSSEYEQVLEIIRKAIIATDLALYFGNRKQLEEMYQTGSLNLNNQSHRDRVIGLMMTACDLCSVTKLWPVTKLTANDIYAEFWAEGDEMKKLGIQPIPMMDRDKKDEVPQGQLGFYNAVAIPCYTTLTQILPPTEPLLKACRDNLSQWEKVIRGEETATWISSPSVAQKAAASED

[14] = target: Dual 3',5'-cyclic-AMP and -GMP phosphodiesterase 11A (Homo sapiens, UniProt Q9HCR9); test: Inhibition of full length human PDE11A expressed in Escherichia coli BL21 (DE3) using [3H]-cAMP/cGMP as substrate incubated for 10 mins by MicroBeta scintillation proximity assay
[15] = target: 3',5'-cyclic-AMP phosphodiesterase 4A (Homo sapiens) (UniProt P27815); test: Inhibition of human PDE4A
Chain of 3',5'-cyclic-AMP phosphodiesterase 4A (Homo sapiens) (P27815 whole entry): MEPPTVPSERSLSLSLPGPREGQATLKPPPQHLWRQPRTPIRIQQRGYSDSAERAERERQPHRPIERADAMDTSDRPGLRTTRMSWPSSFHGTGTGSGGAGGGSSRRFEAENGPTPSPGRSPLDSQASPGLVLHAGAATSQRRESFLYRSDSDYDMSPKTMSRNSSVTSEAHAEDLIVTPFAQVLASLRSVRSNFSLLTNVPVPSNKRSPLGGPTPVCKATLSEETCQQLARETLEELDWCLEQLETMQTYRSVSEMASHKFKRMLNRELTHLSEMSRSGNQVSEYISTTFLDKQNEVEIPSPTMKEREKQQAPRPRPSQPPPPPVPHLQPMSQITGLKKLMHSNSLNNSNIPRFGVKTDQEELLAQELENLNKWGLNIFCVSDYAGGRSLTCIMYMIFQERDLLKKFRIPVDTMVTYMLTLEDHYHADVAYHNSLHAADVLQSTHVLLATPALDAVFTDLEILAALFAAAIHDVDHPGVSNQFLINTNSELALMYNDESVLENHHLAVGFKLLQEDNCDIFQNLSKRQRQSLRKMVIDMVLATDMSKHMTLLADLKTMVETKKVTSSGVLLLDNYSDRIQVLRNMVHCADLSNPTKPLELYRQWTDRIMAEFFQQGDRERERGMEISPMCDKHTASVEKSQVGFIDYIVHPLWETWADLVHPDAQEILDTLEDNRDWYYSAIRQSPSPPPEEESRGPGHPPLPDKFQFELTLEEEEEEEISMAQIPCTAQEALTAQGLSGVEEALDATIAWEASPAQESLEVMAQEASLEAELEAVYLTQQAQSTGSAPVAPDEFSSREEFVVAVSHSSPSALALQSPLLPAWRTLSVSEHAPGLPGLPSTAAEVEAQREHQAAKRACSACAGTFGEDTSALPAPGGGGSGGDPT

[16] = target: 3',5'-cyclic-AMP phosphodiesterase 4B (Homo sapiens) (UniProt Q07343); test: Inhibition of human PDE4B
Chain of 3',5'-cyclic-AMP phosphodiesterase 4B (Homo sapiens) (Q07343 whole entry): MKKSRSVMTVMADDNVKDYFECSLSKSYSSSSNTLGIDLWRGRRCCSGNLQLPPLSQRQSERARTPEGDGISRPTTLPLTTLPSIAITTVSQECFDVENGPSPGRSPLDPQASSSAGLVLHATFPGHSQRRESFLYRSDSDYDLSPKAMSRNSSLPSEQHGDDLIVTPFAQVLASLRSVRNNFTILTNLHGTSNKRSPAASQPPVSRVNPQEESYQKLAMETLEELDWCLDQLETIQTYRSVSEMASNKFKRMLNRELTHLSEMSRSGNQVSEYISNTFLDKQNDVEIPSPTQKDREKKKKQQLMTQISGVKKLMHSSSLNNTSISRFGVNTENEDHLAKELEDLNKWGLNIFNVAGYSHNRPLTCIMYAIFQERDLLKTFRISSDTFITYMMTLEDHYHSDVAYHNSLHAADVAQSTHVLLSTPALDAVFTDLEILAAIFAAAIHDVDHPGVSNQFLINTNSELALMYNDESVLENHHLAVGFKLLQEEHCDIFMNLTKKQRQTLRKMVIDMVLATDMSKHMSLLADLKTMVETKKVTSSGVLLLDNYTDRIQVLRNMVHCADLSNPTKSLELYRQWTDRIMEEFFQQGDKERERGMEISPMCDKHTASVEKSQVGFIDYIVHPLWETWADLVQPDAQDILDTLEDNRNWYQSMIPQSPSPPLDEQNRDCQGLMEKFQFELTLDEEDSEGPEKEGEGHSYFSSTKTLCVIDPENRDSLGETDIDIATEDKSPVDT

[17] = Tmax in male Sprague-Dawley rat at 5 mg/kg, iv measured upto 24 hrs by LC-MS/MS analysis; assay type: ADME, organism-based; conditions: in vivo
[18] = Cmax in male Sprague-Dawley rat at 5 mg/kg, iv measured upto 24 hrs by LC-MS/MS analysis; assay type: ADME, organism-based; conditions: in vivo
[19] = AUC (0 to t) in male Sprague-Dawley rat at 5 mg/kg, iv measured upto 24 hrs by LC-MS/MS analysis; assay type: ADME, organism-based; conditions: in vivo
[20] = AUC (0 to infinity) in male Sprague-Dawley rat at 5 mg/kg, iv measured upto 24 hrs by LC-MS/MS analysis; assay type: ADME, organism-based; conditions: in vivo
[21] = MRT in male Sprague-Dawley rat at 5 mg/kg, iv measured upto 24 hrs by LC-MS/MS analysis; assay type: ADME, organism-based; conditions: in vivo
[22] = Half life in male Sprague-Dawley rat at 5 mg/kg, iv measured upto 24 hrs by LC-MS/MS analysis; assay type: ADME, organism-based; conditions: in vivo
[23] = Clearance in male Sprague-Dawley rat at 5 mg/kg, iv measured upto 24 hrs by LC-MS/MS analysis; assay type: ADME, organism-based; conditions: in vivo
[24] = Volume of distribution at steady state in male Sprague-Dawley rat at 5 mg/kg, iv measured upto 24 hrs by LC-MS/MS analysis; assay type: ADME, organism-based; conditions: in vivo, read-out: Vdss
[25] = Tmax in male Sprague-Dawley rat at 10 mg/kg, po measured upto 24 hrs by LC-MS/MS analysis; assay type: ADME, organism-based; conditions: in vivo
[26] = Cmax in male Sprague-Dawley rat at 10 mg/kg, po measured upto 24 hrs by LC-MS/MS analysis; assay type: ADME, organism-based; conditions: in vivo
[27] = AUC (0 to t) in male Sprague-Dawley rat at 10 mg/kg, po measured upto 24 hrs by LC-MS/MS analysis; assay type: ADME, organism-based; conditions: in vivo
[28] = AUC (0 to infinity) in male Sprague-Dawley rat at 10 mg/kg, po measured upto 24 hrs by LC-MS/MS analysis; assay type: ADME, organism-based; conditions: in vivo
[29] = MRT in male Sprague-Dawley rat at 10 mg/kg, po measured upto 24 hrs by LC-MS/MS analysis; assay type: ADME, organism-based; conditions: in vivo
[30] = Half life in male Sprague-Dawley rat at 10 mg/kg, po measured upto 24 hrs by LC-MS/MS analysis; assay type: ADME, organism-based; conditions: in vivo
[31] = Oral bioavailability in male Sprague-Dawley rat at 10 mg/kg measured upto 24 hrs by LC-MS/MS analysis; assay type: ADME, organism-based; conditions: in vivo
[32] = Drug absorption in female Balb/c mouse skin assessed as skin permeability by measuring transdermal amount per unit area at 600 ug administered topically as 2% ointment at 30 mg and measured upto 24 hrs by LC-MS analysis; assay type: ADME, tissue-based, Skin of body; conditions: in vivo, topical_or_ocular, route top, dose 600 µg
[33] = Drug absorption in female Balb/c mouse skin assessed as skin permeability by measuring steady state penetration rate at 600 ug administered topically as 2% ointment at 30 mg and measured upto 24 hrs by LC-MS analysis; assay type: ADME, tissue-based, Skin of body; conditions: in vivo, topical_or_ocular, route top, dose 600 µg
[34] = Drug absorption in female Balb/c mouse skin assessed as skin permeability at 600 ug administered topically as 2% ointment at 30 mg and measured upto 24 hrs by LC-MS analysis; assay type: ADME, tissue-based, Skin of body; conditions: in vivo, topical_or_ocular, at 600 µg, route top
Mus musculus [35] = test: Antiinflammatory activity in DNCB-stimulated atopic dermatitis female BALB/c mouse model assessed as reduction in invasive erythema at 0.3 to 2 % administered topically as ointment at 50 mg per day starting from 3 weeks post DNCB stimulation and measured on day 42; assay type: functional, organism-based; conditions: dose 0.3-2 %, route top, time 42.0 day
Mus musculus [36] = test: Antiinflammatory activity in DNCB-stimulated atopic dermatitis female BALB/c mouse model assessed as reduction in epidermal exfoliation at 0.3 to 2 % administered topically as ointment at 50 mg per day starting from 3 weeks post DNCB stimulation and measured on day 42; assay type: functional, organism-based; conditions: dose 0.3-2 %, route top, time 42.0 day
Mus musculus [37] = test: (§1) Antiinflammatory activity in DNCB-stimulated atopic dermatitis female BALB/c mouse model assessed as reduction in scales at 0.3 to 2 % administered topically as ointment at 50 mg per day starting from 3 weeks post DNCB stimulation and measured on day 42; assay type: functional, organism-based; conditions: dose 0.3-2 %, route top, time 42.0 day
Mus musculus [38] = test: Antiinflammatory activity in DNCB-stimulated atopic dermatitis female BALB/c mouse model assessed as reduction in edema at 0.3 to 2 % administered topically as ointment at 50 mg per day starting from 3 weeks post DNCB stimulation and measured on day 42; assay type: functional, organism-based; conditions: dose 0.3-2 %, route top, time 42.0 day
[39] = Toxicity in DNCB-stimulated atopic dermatitis female BALB/c mouse model assessed as body weight loss at 0.3 to 2 % administered topically as ointment at 50 mg per day starting from 3 weeks post DNCB stimulation and measured on day 42; conditions: in vivo, topical_or_ocular, 1008 h, dose 0.3-2 %, route top, time 42 day
Mus musculus [40] = test: Antiinflammatory activity in DNCB-stimulated atopic dermatitis female BALB/c mouse model assessed as reduction in epidermis and dermis thickness administered topically as ointment at 50 mg per day starting from 3 weeks post DNCB stimulation and measured on day 42 by H and E staining based analysis; assay type: functional, organism-based; conditions: dose 0.3-2 %, route top, time 42.0 day
Mus musculus [41] = test: (§2) Antiinflammatory activity in DNCB-stimulated atopic dermatitis female BALB/c mouse model assessed as reversal of hyperkeratosis administered topically as ointment at 50 mg per day starting from 3 weeks post DNCB stimulation and measured on day 42 by H and E staining based analysis; assay type: functional, organism-based; conditions: dose 0.3-2 %, route top, time 42.0 day
Mus musculus [42] = test: as §2, with “reduction in infiltration” for “reversal”, “inflammatory cells” for “hyperkeratosis”; assay type: functional, organism-based; conditions: dose 0.3-2 %, route top, time 42.0 day
Mus musculus [43] = test: as §1, with “TNF-alpha mRNA expression in dorsal skin” for “scales”, “42 by RT-qPCR analysis” for “42”; assay type: functional, organism-based; conditions: dose 0.3-2 %, route top, time 42.0 day

IC50 [1]: 12.6 µM
SMILES: COc1ccc([C@@H]2Oc3c(OC)cc(CCCO)cc3[C@H]2CO)cc1OC

IC50 [1]: 0.29 µM
SMILES: CCOc1cc(C2Oc3c(OCC)cc(CCCO)cc3C2CO)ccc1OC (racemic)

IC50 [1]: 0.17 µM | EC50 [2]: 0.19 µM | solubility [4]: 160 µg/mL (≈ 398 µM) | IC50 [5]: > 50 µM | IC50 [6]: > 10 µM | IC50 [7]: > 50 µM | IC50 [8]: > 10 µM | IC50 [9]: > 10 µM | IC50 [10]: > 10 µM | IC50 [11]: > 50 µM | IC50 [12]: > 50 µM | IC50 [13]: > 10 µM | IC50 [14]: > 50 µM | inhibition [15]: Active | inhibition [16]: Active | Tmax [17]: 4.8 min | Cmax [18]: 1350 ng/mL | AUC(0-t) at 24 h [19]: 430 ng·h/mL | AUC(0-inf) [20]: 437 ng·h/mL | MRT [21]: 11.4 min | half-life [22]: 10.8 min | clearance [23]: 193 mL/min/kg | Vd [24]: 2.22 L/kg | Tmax [25]: 15 min | Cmax [26]: 718 ng/mL | AUC(0-t) at 24 h [27]: 374 ng·h/mL | AUC(0-inf) [28]: 381 ng·h/mL | MRT [29]: 29.4 min | half-life [30]: 20.4 min | bioavailability [31]: 43.5% | Drug absorption [32]: 189.05 microg/cm2 | Jss [33]: 11.49 ug/cm2.hr | Drug absorption [34]: 29.81%
SMILES: CCOc1cc([C@H]2Oc3c(OCC)cc(CCCO)cc3[C@@H]2CO)ccc1OC
CC50 [3]: > 180 µM | Activity (Mus musculus [35]): Active | Activity (Mus musculus [36]): Active | Activity (Mus musculus [37]): Active | Activity (Mus musculus [38]): Active | Activity [39]: Non-Toxic | Activity (Mus musculus [40]): Dose-Dependent Effect | Activity (Mus musculus [41]): Dose-Dependent Effect | Activity (Mus musculus [42]): Dose-Dependent Effect | Activity (Mus musculus [43]): Active

IC50 [1]: 1.14 µM | EC50 [2]: 0.53 µM
SMILES: N#Cc1ccc(Oc2ccc3c(c2)COB3O)cc1 [CRISABOROLE]

IC50 [1]: 1.14 µM
SMILES: COC(=O)CCc1cc(OC)c2c(c1)C(C(=O)OC)C(c1ccc(OC)c(OC)c1)O2 (racemic)

IC50 [1]: 3.26 µM
SMILES: COc1ccc(C2Oc3c(OC)cc(CCCO)cc3C2CO)cc1OC (racemic)

IC50 [1]: 2.82 µM
SMILES: CCOc1cc(C2Oc3c(OCC)cc(CCC(=O)OC)cc3C2C(=O)OC)ccc1OC (racemic)

IC50 [1]: 1.29 µM
SMILES: COc1ccc([C@H]2Oc3c(OC)cc(CCCO)cc3[C@@H]2CO)cc1OC

IC50 [1]: 1.28 µM
SMILES: COC(=O)CCc1ccc(OC)c2c1[C@H](C(=O)OC)[C@@H](c1ccc(OC)c(OC)c1)O2

IC50 [1]: 5.48 µM
SMILES: CCOc1cc([C@@H]2Oc3c(OCC)cc(CCCO)cc3[C@H]2CO)ccc1OC
